Tests used:
[1] = target: Transient receptor potential cation channel subfamily V member 4 (Homo sapiens, UniProt Q9HBA0); experiment: Antagonist activity at human TRPV4
[2] = Inhibition of TNP-ADP binding to SERCA (unknown origin) by UV dual-wavelength spectrophotometer; parameters: species or system Homo sapiens

Chain of Transient receptor potential cation channel subfamily V member 4 (Q9HBA0 whole entry): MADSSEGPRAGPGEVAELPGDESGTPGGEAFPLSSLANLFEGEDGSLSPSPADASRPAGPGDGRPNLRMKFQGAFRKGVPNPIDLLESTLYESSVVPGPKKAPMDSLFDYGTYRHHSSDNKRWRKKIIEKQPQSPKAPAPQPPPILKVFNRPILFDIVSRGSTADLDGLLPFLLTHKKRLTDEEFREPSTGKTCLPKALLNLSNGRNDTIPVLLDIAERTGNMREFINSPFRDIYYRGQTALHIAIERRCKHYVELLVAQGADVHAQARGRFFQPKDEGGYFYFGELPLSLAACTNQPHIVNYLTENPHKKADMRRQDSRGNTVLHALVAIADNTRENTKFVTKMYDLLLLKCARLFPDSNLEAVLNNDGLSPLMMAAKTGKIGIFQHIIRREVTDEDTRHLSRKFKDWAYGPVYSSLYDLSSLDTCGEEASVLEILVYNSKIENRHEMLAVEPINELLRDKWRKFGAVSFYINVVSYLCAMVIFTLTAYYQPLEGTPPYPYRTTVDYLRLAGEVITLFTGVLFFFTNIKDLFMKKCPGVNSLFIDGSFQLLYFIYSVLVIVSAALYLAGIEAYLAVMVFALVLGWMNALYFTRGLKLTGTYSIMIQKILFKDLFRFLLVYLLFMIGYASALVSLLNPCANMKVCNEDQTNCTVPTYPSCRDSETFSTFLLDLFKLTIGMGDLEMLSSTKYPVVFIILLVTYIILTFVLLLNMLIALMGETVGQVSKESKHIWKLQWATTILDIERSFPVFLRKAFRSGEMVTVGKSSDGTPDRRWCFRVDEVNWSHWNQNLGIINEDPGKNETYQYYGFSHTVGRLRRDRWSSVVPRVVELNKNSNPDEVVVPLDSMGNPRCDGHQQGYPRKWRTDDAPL

| SMILES | IC50 [1] [nM] | IC50 [2] [nM] |
| --- | --- | --- |
| Cc1c(C(=O)Nc2cccc(C(F)(F)F)c2)cc(-c2ccccc2)n1CCCN1CCOCC1 | 18 |  |
| CC(C)(O)[C@H]1O[C@H]2CC[C@@]3(C)[C@@](O)(CC[C@H]4Cc5c([nH]c6ccccc56)[C@@]43C)C2=CC1=O [PAXILLINE] |  | 5000 |

Source: ChEMBL document CHEMBL4725288, “Modulation of TRPV4 and BKCa for treatment of brain diseases” (Bioorg Med Chem, 2020)
